What was measured:
MCF7 = test: Anticancer against human MCF7 cells assessed as tumor growth inhibition after 72 hrs by SRB assay; type: functional, cell-based; conditions: MCF7, 72 h
[1] = target: T1, Epidermal growth factor receptor (Homo sapiens, UniProt P00533); test: Inhibition of epidermal growth factor receptor kinase (unknown origin) using [33P]-ATP after 20 to 30 mins by radiometric assay
[2] = target: T1, Epidermal growth factor receptor; test: Inhibition of epidermal growth factor receptor kinase (unknown origin) using [33P]-ATP at 0.001 uM after 20 to 30 mins by radiometric assay
[3] = target: T1, Epidermal growth factor receptor; test: Inhibition of epidermal growth factor receptor kinase (unknown origin) using [33P]-ATP at 0.1 mM after 20 to 30 mins by radiometric assay

T1 sequence (P00533 whole entry): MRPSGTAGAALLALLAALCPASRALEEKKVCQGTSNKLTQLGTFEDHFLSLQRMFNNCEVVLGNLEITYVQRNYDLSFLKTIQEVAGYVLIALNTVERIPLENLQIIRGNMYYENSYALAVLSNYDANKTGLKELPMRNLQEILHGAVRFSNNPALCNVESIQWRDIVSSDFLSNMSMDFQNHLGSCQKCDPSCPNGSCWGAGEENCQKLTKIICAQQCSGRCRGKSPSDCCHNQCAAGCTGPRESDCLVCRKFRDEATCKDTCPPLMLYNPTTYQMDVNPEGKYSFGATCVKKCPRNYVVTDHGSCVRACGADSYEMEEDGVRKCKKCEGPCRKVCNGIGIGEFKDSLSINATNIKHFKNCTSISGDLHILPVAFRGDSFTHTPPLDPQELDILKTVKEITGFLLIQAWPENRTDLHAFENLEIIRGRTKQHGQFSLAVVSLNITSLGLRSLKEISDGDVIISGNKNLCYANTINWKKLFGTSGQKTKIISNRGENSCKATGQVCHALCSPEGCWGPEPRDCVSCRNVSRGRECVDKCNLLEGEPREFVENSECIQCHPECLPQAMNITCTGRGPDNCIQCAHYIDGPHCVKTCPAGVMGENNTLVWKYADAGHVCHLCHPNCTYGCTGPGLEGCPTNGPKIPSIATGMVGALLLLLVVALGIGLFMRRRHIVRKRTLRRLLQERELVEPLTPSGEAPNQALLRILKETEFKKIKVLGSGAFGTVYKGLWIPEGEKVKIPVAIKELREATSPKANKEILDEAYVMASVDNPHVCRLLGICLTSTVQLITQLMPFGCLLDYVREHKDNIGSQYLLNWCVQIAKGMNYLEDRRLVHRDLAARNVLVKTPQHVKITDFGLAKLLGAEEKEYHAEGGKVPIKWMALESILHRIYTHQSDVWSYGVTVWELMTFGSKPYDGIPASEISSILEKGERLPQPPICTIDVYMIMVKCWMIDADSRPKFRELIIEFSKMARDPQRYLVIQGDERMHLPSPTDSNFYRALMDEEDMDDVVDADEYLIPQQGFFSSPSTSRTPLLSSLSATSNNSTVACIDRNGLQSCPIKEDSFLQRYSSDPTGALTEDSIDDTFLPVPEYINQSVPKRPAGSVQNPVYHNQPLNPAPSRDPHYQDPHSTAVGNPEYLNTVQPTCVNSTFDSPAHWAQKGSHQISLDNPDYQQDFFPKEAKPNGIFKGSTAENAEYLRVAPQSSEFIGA

Compound	IC50 (MCF7) [µM]	further results
Cc1ccc(Nc2c(C(N)=O)cnc3ccc(S(=O)(=O)Nc4cc(C)on4)cc23)cc1	120	–
NC(=O)c1cnc2ccc(-c3csc(NC(=S)Nc4ccccc4)n3)cc2c1Nc1ccc(Br)cc1	657	–
NC(=O)c1cnc2ccc(-c3csc(N)n3)cc2c1Nc1ccc(Cl)cc1	315	–
NC(=O)c1cnc2ccc(C(=O)/C=C/c3ccc(Cl)cc3)cc2c1Nc1ccc(Cl)cc1	277	–
NC(=O)c1cnc2ccc(-c3csc(N)n3)cc2c1Nc1ccc(Br)cc1	334	–
NC(=O)c1cnc2ccc(-c3csc(NC(=S)Nc4ccccc4)n3)cc2c1Nc1ccc(Cl)cc1	326	–
C=CC(=O)Nc1ccc2ncnc(Nc3cc(F)c(Cl)c(Cl)c3)c2c1	–	IC50 [1]: 3.7e-05 µM
Cc1cc(NS(=O)(=O)c2ccc3ncc(C(N)=O)c(Nc4ccc(Cl)cc4)c3c2)no1	145	–
NC(=O)c1cnc2ccc(C(=O)/C=C/c3ccc(Cl)cc3)cc2c1Nc1ccc(Br)cc1	328	IC50 [1]: 4.82 µM; inhibition [2]: 0%; inhibition [3]: -3%
Cc1ccc(Nc2c(C(N)=O)cnc3ccc(-c4csc(N)n4)cc23)cc1	62.2	–
Cc1ccc(Nc2c(C(N)=O)cnc3ccc(-c4csc(NC(=S)Nc5ccccc5)n4)cc23)cc1	386	–

The remaining compounds from weak to strong by IC50 (MCF7), led by results:

IC50 (MCF7) [µM]	Compound	further results
51	CN(C)c1ccc(/C=C/C(=O)c2ccc3ncc(C(N)=O)c(Nc4ccc(Br)cc4)c3c2)cc1	–
50.9	Cc1ccc(NC(=O)/C(C#N)=C\Nc2ccc(S(=O)(=O)Nc3cc(C)on3)cc2)cc1	–
41.2	Cc1ccc(Nc2c(C(N)=O)cnc3ccc(C(=O)/C=C/c4ccc(Cl)cc4)cc23)cc1	–
33.7	Cc1cc(NS(=O)(=O)c2ccc3ncc(C(N)=O)c(Nc4ccc(Br)cc4)c3c2)no1	–
28.4	Cc1cc(NS(=O)(=O)c2ccc(N/C=C(/C#N)C(=O)Nc3ccc(Cl)cc3)cc2)no1	–
14	Cc1cc(NS(=O)(=O)c2ccc(N/C=C(/C#N)C(=O)Nc3ccc(Br)cc3)cc2)no1	–
3.46	CN(C)c1ccc(/C=C/C(=O)c2ccc3ncc(C(N)=O)c(Nc4ccc(Cl)cc4)c3c2)cc1	IC50 [1]: 5.28 µM; inhibition [2]: 1%; inhibition [3]: 3%
2.16	Cc1ccc(Nc2c(C(N)=O)cnc3ccc(C(=O)/C=C/c4ccc(N(C)C)cc4)cc23)cc1	–
